Tested on: green peach aphids (Myzus persicae)
Experiment: Pesticidal activity against green peach aphid on cabbage plants after soil treatment
Format: in vivo
Settings: for % Control at DAT of 21 days: Table 6; for % Control at DAT of 21 days / % Control at DAT of 28 days: GEROPON SDS 384 ppm
Procedure: Each tested compositions was prepared by mixing a predetermined amount of the CLOSER® SC insecticide (a sulfoxaflor concentrate having a sulfoxaflor concentration of 240 g/L) with a predetermined amount of sodium dioctylsulfosuccinate GEROPON® SDS anionic surfactant in an aqueous medium.
The compositions containing different amounts of sulfoxaflor and sodium dioctylsulfosuccinate GEROPON® SDS surfactant were prepared as shown in TABLE 4. For example, the “Sulfoxaflor at 100 ppm” composition contained about 0.043% weight of sulfoxaflor based on the total weight of the composition (i.e., 100 ppm of sulfoxaflor per one gram of final soil mixture). “Sulfoxaflor at 100 ppm+GEROPON®” composition contained about 0.043% weight of sulfoxaflor based on the total weight of the composition (i.e., 100 ppm of sulfoxaflor per one gram of final soil mixture), and about 0.225% weight of sodium dioctylsulfosuccinate GEROPON® SDS surfactant based on the total weight of the composition (i.e., 384 ppm per one gram of the final soil mixture; 1500 ppm per one gram of the total soil liquid).
The imidacloprid pesticide PROVADO® 1.6 from Bayer CropScience LP (North Carolina, USA) was used as a standard commercial pesticidal composition for aphid control. The imidacloprid pesticide PROVADO® 1.6 was tested at three different loadings: 100 ppm, 25 ppm, and 6.25 ppm per gram of final soil mixture. In this EXAMPLE 6, water was tested as a control composition. Furthermore, an aqueous solution of sodium dioctylsulfosuccinate GEROPON® SDS anionic surfactant was tested.
Cabbage plants (Brassica oleracea capitata L) of uniform size (two new leaf stage) infested with green peach aphids (Myzus persicae) (“GPA”) were used as the study models according to the following procedure:
Cabbage seeds were planted in 3-inch pots containing a peat-based METRO MIX 360® potting soil available from SUN GRO® Horticulture Canada, Ltd. The seeds were propagated in greenhouse zone G4, located in the R&D building of Dow AgroSciences (Indianapolis, Ind., USA), at 26° C. with a relative humidity of 53%. Natural light was supplemented with 1,000-watt metal halide overhead lamps with an average illumination of about 500 μE/m^2·s photosynthetic active radiation for 16 consecutive hours each day.
Each of the 1-ounce clear cups was filled with about 30 grams of the inoculated Midwest field soil having the components as shown in TABLE 5. […] The soil moisture of the Midwest field soil was about 15% as measured by Mettler LJ16 Moisture Analyzer (15 minutes and 100° C.).
The Midwest field soil in each selected 1-ounce cup was treated with about 9 mL of the selected composition using a 10 mL pipette. Deionized water was used as a control. The remainders of the 1-ounce cups were capped, and a small hole was poked into each lid to provide air flow. The remainders of the 1-ounce cups were stored in a controlled environment at 26° C. and covered with a black plastic bag to prevent any light from entering, until being used for the test.
Cabbage plants were gently removed from the 3-inch pots, and the plant roots were washed with water to remove any excess soil. Then, the cabbage plant was transplanted into the 1-ounce cup containing the treated Midwest field soil (one cabbage plant per one 1-ounce cup). The plants were watered as needed after being transplanted.
At the selected number of days after treating the Midwest field soil with the composition (i.e., numbers of days after the soil treatment, “DAT”), the cabbage plant in each 1-ounce cup was infested with GPA by placing a piece of squash leaf infested with about 25 aphids on each cabbage plant. The plants were then placed in a controlled environment at 26° C. for three days.
Five different evaluation times were performed: DAT of 0, 7, 14, 21, or 28 days. For example, for the DAT of zero (0) day, the cabbage plant was infested with GPA on the same day that it was transplanted into the treated Midwest field soil. […]

[1] = dose rate: sulfoxaflor 6.25 ppm, combination 6.25 + 384 ppm
[2] = Table 7, dose rate: sulfoxaflor 6.25 ppm, combination 6.25 + 384 ppm
[3] = Table 8, dose rate: sulfoxaflor 25 ppm, combination 25 + 384 ppm

In the case of C[C@@H](c1ccc(C(F)(F)F)nc1)[S@](C)(=O)=NC#N (racemic) [Sulfoxaflor, [methyl(oxo) {1-[6-(trifluoromethyl)-3-pyridyl]ethyl}-λ^6-sulfanylidene]cyanamide, reference compound], the “% Control at DAT of 21 days” value [1] is reported as 0%, the “% Control at DAT of 28 days” value [2] is reported as 0% and the “% Control at DAT of 28 days” value [3] is reported as 36.39%.

CCCCCCCCOC(=O)CC(C(=O)OCCCCCCCC)S(=O)(=O)O.[Na] (stereo not shown) [GEROPON ® SDS Surfactant, Sodium dioctyl sulfosuccinate] was tested, and the “number of live GPA aphids at DAT of 21 days” value (FIG. 6, cabbage in treated Midwest soil, counted three days after infestation, loading as named in the composition) was 30 to 40, the “% Control at DAT of 21 days” value [1] was 0% and the “% Control at DAT of 28 days” value [2] was 0%. For the same compound, the “% Control at DAT of 28 days” value [3] was 0%.

— US20180125074A1, “PESTICIDAL COMPOSITIONS AND RELATED METHODS” (priority 2015, published 2018)
